Data set [1] relates to α1-acid glycoprotein (AGP). The settings on record: Jiang et al.; read-out: KD of D3 to AGP; cited from earlier work. The source says: This had been expected before as all three D-peptides have a positive net charge and AGP is known to more strongly bind positively charged molecules as compared to HSA, which is known to bind rather acidic or neutral molecules. This had been observed previously for D3 in a similar manner. […] The unbound fractions (fu) of the th ...

For a further data set, the target named is T1, Aβ1-42 (Homo sapiens, UniProt P05067).
T1 construct: Lyophilized Aβ1 - 42 was dissolved in the respective peptide solution; purchased Isoloid GmbH (recombinant) or Bachem AG (synthetic)
Put plainly: Aβ aggregation assay (Thioflavin T). In kind it is biochemical. The settings on record: 10 μM Aβ1-42, 5 μM ThT, 20 mM sodium phosphate pH 7.4, 50 mM NaCl, 37°C, 70 h, triplicates, nonlinear regression; read-out: IC50, inhibition of Aβ1-42 aggregation into ThT-positive fibrils. The protocol: The potencies of ANK6, tANK6, cANK6r, and D3 to inhibit Aβ1 - 42 aggregation was examined using Thioflavin T (ThT). For this purpose, a buffer solution composed of 20 mM sodium phosphate buffer (pH 7.4) including 50 mM sodium chloride, and 5μM ThT was prepared. Afterwards, ANK6, tANK6, cANK6r, or D3 were diluted in this solution, respectively, to final peptide concentrations between 0.3125 and 80μM (ANK6 and tANK6:0.3125, 0.625, 1.25, 2.5, 5, 10, 20μM; cANK6r: 1.25, 2.5, 5, 10, 20, 40, 80μM; D3:1.17, 2.34, 4.7, 9.4, 18.8, 37.5, 75μM).
The buffer solution only served as negative control (blank). Lyophilized Aβ1 - 42 was dissolved in the respective peptide solution to a final concentration of 10μM. D-peptide solutions with the highest concentration of the respective D-peptide containing all components, except of Aβ1 - 42, served as negative controls. Aβ1 - 42 solved in buffer solution without D-peptide served as positive control. 100μL of each solution were transferred into the wells (triplicates) of 96 well microplates (PS, black, non-binding from Greiner Bio-One, Germany) and fluorescence signals (excitationλ 440 nm, emissionλ 490 nm) were measured in a Polarstar Optima plate reader (BMG, Germany) at 37°C every 20 min for 70 h. Afterwards, the respective blank curves were subtracted from each aggregation curve to exclude background fluorescence. […] The half maximal inhibitory concentration (IC50 value) was determined by plotting the percent inhibition against the respective D-peptides’ concentrations. Datasets were fitted by nonlinear regression (one site – specific binding with Hill slope, GraphPad Prism 5).

Non-standard residues stand in square brackets, D forms with d. Residues, ends and D or L forms follow the SMILES beside them.

T1 sequence (P05067 672-713 limits assumed): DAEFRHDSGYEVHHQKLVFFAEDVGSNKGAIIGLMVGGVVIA

In the case of `CC(C)C[C@@H](NC(=O)[C@@H](CCCNC(=N)N)NC(=O)[C@H](NC(=O)[C@@H](CCCNC(=N)N)NC(=O)[C@H]1CCCN1C(=O)[C@H](N)CCCNC(=N)N)[C@H](C)O)C(=O)N[C@H](Cc1c[nH]cn1)C(=O)N[C@@H](C(=O)N[C@H](Cc1c[nH]cn1)C(=O)N[C@H](CCCNC(=N)N)C(=O)N[C@H](CC(N)=O)C(=O)N[C@H](CCCNC(=N)N)C(N)=O)[C@H](C)O` [Peptide D3] (H-[dR][dP][dR][dT][dR][dL][dH][dT][dH][dR][dN][dR]-NH2), in data set [1], the Kd is 1.8 µM. On Aβ1-42, the IC50 was 7.2 µM.

The values are drawn from article PMC6218115, “In Vitro Potency and Preclinical Pharmacokinetic Comparison of All-D-Enantiomeric Peptides Developed for the Treatment of Alzheimer’s Disease” (Journal of Alzheimer's Disease, 2018).
